Columns and labels:
[1] = system: mice exposed to a lethal dose of E. coli lipopolysaccharide (LPS); test: Murine model of sepsis (lethal dose of E. coli LPS); assay type: in vivo, Balb/c mice; conditions: protocol only; 0, 20, 40, or 80 mg/kg/day BID IP
Experimental: In this study, Balb/c mice exposed to a lethal dose of E. coli lipopolysaccharide (LPS; 10 mg/kg IP) are treated with R-107 (0, 20, 40, or 80 mg/kg/day, BID IP), with the initial dose given 1 hour after LPS injection, and the mortality for the animal treated with LPS only (the control group) vs. that for the animals treated with the various doses of R-107 is compared.
In a satellite study, tissues and sera are collected at 16 hours, i.e., 15 hours after the first administration and 3 hours after the second administration of R-107, for analysis, and the level of creatinine, aspartate transminase (AST), alanine transaminase (ALT), bilirubin, amylase, lipase, and alkaline phosphatase (ALP), associated with kidney, pancreas, and liver functioning are measured.

[2] = Incubation of R-107 in mouse plasma, relative concentrations by HPLC; assay type: in vitro ADME; conditions: R-107 4 mM in mouse plasma, 37° C.
Experimental: In an in vitro study, 2,2,5,5-tetramethyl-3-(nitrooxymethyl)pyrrolidin-1-yl acetate (R-107) was incubated in mouse or rat plasma at 37° C. at a concentration of 4 mM, and the relative concentrations of this compound as well as of its corresponding hydroxylamine, (1-hydroxy-2,2,5,5-tetramethylpyrrolidin-3-yl) methyl nitrate (R-105), and 3-nitratomethyl-2,2,5,5-tetramethylpyrrolidinyloxy (R-100), were measured by HPLC.

[3] = system: Pseudomonas aeruginosa (PSA)-induced septic pneumonia; test: Sheep model of septic pneumonia; assay type: in vivo, Merino sheep; conditions: protocol only; total 80 mg/kg BID IV
Source text: In this study, a model of sheep suffering from Pseudomonas aeruginosa (PSA)-induced septic pneumonia and consequent pulmonary dysfunction is used. Female Merino sheep are operatively instrumented for chronic study with Swan-Ganz®, i.e., pulmonary artery, and femoral artery catheters, and are randomly allocated to vehicle control or R-107 treatment group. Smoke inhalation injury (48 breaths of cotton smoke) is induced and 2.4×10^11 colony-forming units (CFU) of PSA are instilled in the lung via bronchoscope under general anesthesia. The animal in the treatment group are intravenously (IV) administered with a total of 80 mg/kg of R-107 BID. Ringer's lactate solution is titrated IV to maintain hematocrit (hct) at baseline±3%. Measurements are taken at baseline and every 3 hours during the 24 hours study period. Data are expressed as mean±SEM. Statistical analysis: two-way ANOVA and Bonferroni post hoc comparison. A p-value <0.05 is considered as statistically significant.

[4] = system: acute retinal ischemia-reperfusion injury; test: Porcine model of acute retinal ischemia-reperfusion injury; assay type: in vivo; conditions: protocol only; 10, 30, 80 mg/kg/day IV BID
Experimental: In this study, a porcine model of acute retinal ischemia-reperfusion injury (n=6 per group) is induced by equilibration with an elevated saline reservoir to create a static IOP of 90 mmHg for 90 min. Task #1: Microvascular responsiveness: A dose-response of parenteral R-107 (0, 10, 30, 80 mg/kg/day IV BID) is initiated 10 minutes before reperfusion. 1 hour after reperfusion, retinal microvessels are harvested and cannulated for ex vivo analysis of vascular responsiveness to endothelium dependent and independent vasodilators. Task #2: Retinal function and morphology: R-107 is given 10 minutes before reperfusion (at a dose determined by Task #1) and its efficacy judged by electroretinogram (1, 2, 7 days post-reperfusion) and retinal histology, ultrastructure, and drug concentration (Day 7).

[5] = Plasma pharmacokinetics in sheep (release of R-100 from R-107), LCMS; assay type: in vivo
Experimental: In the following two experiments, the pharmacokinetic of releasing R-100 from R-107, via R-105 that is the reduced form of R-100, was studied in vivo according to the protocol described herein.
100 μl aliquots plasma obtained from R-107-treated sheep or pig were thawed and 200 μl ice-cold ethanol was added to each 100 μl sample to precipitate protein. Samples were then vortexed, placed on ice for 10 minutes, and then spun down at room temperature for 15 minutes. A first 100 μl supernatant from each spun sample was withdrawn and placed in a labeled HPLC micro vial to which 300 μl MPA (LC mobile phase A) was added, and the vial contents were then mixed and submitted for LCMS analysis (kept at 4° C.). The concentration of R-107 was measured in this sample as was the concentration of R105. A second 100 μl supernatant from each spun sample was added to a labelled HPLC micro vial to which 300 μl MPA and 2 μl of Reducing solution (ascorbic acid, 1.0 mg/ml in water) were added. These vials were vortexed; incubated at 50° C. for 1 hour with gentle shaking; and were then cooled to 4° C. and submitted for LCMS analysis. This sample was analyzed for R105, i.e., reduced form of R-100, and the amount measured thus represents the sum of R-100 and R-105 originally present in the plasma. The concentration of R-100 can be calculated from that of the R-105 in the second sample minus that of R-105 in the first sample. However, the concentrations of R-105 were seen to be low (approximately 10% or less of those of R-100) and so the results reported below as R-100 are not corrected for R-105.
Sets of standards (R-100, R-105 and R-107) were prepared by spiking individually in pig plasma. 100 μl aliquots of these spiked plasma samples, after thawing, were included in the above extraction protocol.
Analysis method were carried out with an Agilent HPLC stack, with column eluate directed, via a diverter valve, into the source of an AB Sciex ‘Qstar Elite’ Hybrid TOF, high-resolution mass spectrometer. LC column: Phenomenex Kinetex C18 2.6u 100A, 2.1×50 mm. LC mobile phase A: H2O with 0.02% trifluoroacetic acid (TFA), 0.1% formic acid (HOF); Phase B: acetonitrile (ACN) with 0.02% TFA, 0.1% HOF. Mobile phase flow rate=500 μl/min. Injection size: 8 μl, via Agilent 1100 u-WPS autosampler. […]

CC(=O)ON1C(C)(C)CC(CO[N+](=O)[O-])C1(C)C (centres unmarked) [R-107, 2,2,5,5-tetramethyl-3-(nitrooxymethyl)pyrrolidin-1-yl acetate]
Efficacy in murine model of sepsis [1]: Effective
Relative concentration of R-107 ([2]; 0.1 hrs): 326
Relative concentration of R-107 ([2]; 1.5 hrs): 284
Relative concentration of R-107 ([2]; 20 hrs): 0
Efficacy in sheep model of septic pneumonia [3]: Effective
Efficacy in porcine model of acute retinal ischemia-reperfusion injury [4]: Effective
R-100 in plasma ([5]; IM neat R-107 25 mg/kg, 48 hrs post dose): not detected
R-107 in plasma ([5]; IV neat R-107 25 mg/kg over 10 minutes, 2 hrs post dose): not detected
R-107 in plasma ([5]; IV neat R-107 25 mg/kg over 10 minutes, 4 hrs post dose): not detected
R-107 in plasma ([5]; IV neat R-107 25 mg/kg over 10 minutes, 6 hrs post dose): not detected
R-107 in plasma ([5]; IV neat R-107 25 mg/kg over 10 minutes, 8 hrs post dose): not detected
R-107 in plasma ([5]; IV neat R-107 25 mg/kg over 10 minutes, 24 hrs post dose): not detected
concentration at 0 h ([5]; plasma, IV neat R-107 25 mg/kg over 10 minutes, 0 hrs post dose): 0 ng/mL
concentration at 0.1 h ([5]; plasma, IV neat R-107 25 mg/kg over 10 minutes, 0.1 hrs post dose): 5500 ng/mL
concentration at 0.4 h ([5]; plasma, IV neat R-107 25 mg/kg over 10 minutes, 0.4 hrs post dose): 1210 ng/mL
concentration at 0.5 h ([5]; plasma, IV neat R-107 25 mg/kg over 10 minutes, 0.5 hrs post dose): 200 ng/mL
concentration at 1 h ([5]; plasma, IV neat R-107 25 mg/kg over 10 minutes, 1 hrs post dose): 0 ng/mL

From US9604932B2 (priority 2013, dated 2017)
